“And” between values parts separate entries of the source, which are not always exact repeats. Equal values may be shown once. “Also recorded” adds a separate entry of the source. Read-outs that look alike come from different tables or passages of the source.
Experiments:
[1] = system: COX-2; experiment: Western blot of COX-2 protein in TNF-α/IFN-γ-treated HSEIC; type: cell-based, human; conditions: for COX-2 protein levels relative to GAPDH: cotreatment experiments (Figures 7-15), single and combined doses given with the value
[2] = system: IL-6; type: cell-based, human; conditions: cotreatment experiments (Figures 7-15), single and combined doses given with the value; vs TNF-α/IFN-γ group
[3] = system: human small intestinal epithelial cells (HSEIC); conditions: for cell viability (MTT absorbance at 595 nm): vs vehicle control, doses given with the value; for Long-Term Cytotoxicity / Short-Term Cytotoxicity: MTT in HSEIC, N/A = no cytotoxicity seen; for Long-Term Cytotoxicity: doses cytotoxic after long exposure; for Short-Term Cytotoxicity: doses cytotoxic after short exposure; for cytotoxic effects overall (MTT): over all doses and time points tested (24-96 h), or time not stated
[4] = system: dextran sulfate sodium-induced colitis; set-up: method as in PMID 34478286; conditions: 20 mg/kg, consumed orally for 17 days; cited from earlier work
[5] = system: porcine intestinal epithelial cells; set-up: method as in PMID 32735667; conditions: pretreatment with 100 μM; cited from earlier work
[6] = single ligands (Figure 6), vs TNF-α/IFN-γ group, doses given with the value

| Compound | Most Effective Dose [1] | normalized COX-2 levels (COX-2/GAPDH) [1, 6] | Fold Change of COX-2 [1] | COX-2 protein levels relative to GAPDH ([1]; vs TNF-α/IFN-γ group) | IL-6 protein levels relative to GAPDH [2] | cell viability (MTT absorbance at 595 nm) ([3]; 24 h exposure) | cell viability (MTT absorbance at 595 nm) ([3]; 48 h exposure) | cell viability (MTT absorbance at 595 nm) ([3]; 96 h exposure) | cell viability (MTT absorbance at 595 nm) ([3]; 72 h exposure) | COX-2 levels decreased by [1] | Long-Term Cytotoxicity [3] | Short-Term Cytotoxicity [3] | cytotoxic effects overall (MTT) [3] | also measured |
| --- | --- | --- | --- | --- | --- | --- | --- | --- | --- | --- | --- | --- | --- | --- |
| O=C(c1ccc(F)cc1)C1CCN(CCn2c(=O)[nH]c3ccccc3c2=O)CC1 [Ket, ketanserin] | 1 µM | Only 1 (p < 0.0001) and 10 μM (p < 0.01) of ketanserin significantly lowered COX-2 levels and 20 μM of ketanserin led to a significant increase in the normalized COX-2 levels and higher doses significantly increased COX-2 levels | – | – | – | – | – | – | – | – | – | – | – | – |
| CN(C)CCc1c[nH]c2cccc(OP(=O)(O)O)c12 [Psi, psilocybin] | 40 µM | Psi (40 μM), Cur (0.5 μM), and Eug (50 μM) significantly reduced COX-2 levels without cytotoxic effects | −3.8 × | effectively reduced COX-2 levels and 40 μM psilocybin all significantly decreased the COX-2 levels | 20 μM psilocybin and 10 μM psilocybin combined with 0.5 μM curcumin showing the most significant reductions and the 10 μM psilocybin treatment group, which significantly upregulated the IL-6 levels | significantly increased the number of viable cells at doses of 20 (p < 0.001), 40, 80, and 160 μM | increased the cell viability at 20 (p < 0.01), 40 (p < 0.001), 80, and 160 μM | 80 (p < 0.05) and 160 μM (p < 0.0001) of psilocybin for 96 h significantly increased the cell viability | – | – | – | – | – | normalized COX-2 levels (COX-2/GAPDH) ([1]; single ligands (Figure 6), vs TNF-α/IFN-γ group, doses given with the value, listed as Psilocybin): significant reductions in the normalized COX-2 levels across all concentrations tested (5, 10, 20, and 40 μM) |
| CC(=O)Oc1cccc2[nH]cc(CCN(C)C)c12 [4-AcO-DMT, 4-Acetoxy-N,N-dimethyltryptamine] | 20 µM | significant decrease in the relative COX-2 levels at the concentrations of 10 (p < 0.01), 20 (p < 0.0001), and 40 μM and 5 μM significantly increased relative COX-2 levels | −1.5 × | only the combination of 20 μM of 4-AcO-DMT with 0.5 μM of Cap and 40 μM of 4-AcO-DMT significantly reduced the COX-2 levels; also recorded: significantly reduced in the 10 μM of 4-AcO-DMT, 25 μM of Eug, 20 μM of 4-AcO-DMT combined with 25 μM of Eug, 40 μM of 4-AcO-DMT, and 40 μM of 4-AcO-DMT combined with 25 μM of Eug groups | significantly reduced only in the 20 μM of 4-AcO-DMT combined with 25 μM of Eug, 40 μM of 4-AcO-DMT, and 40 μM of 4-AcO-DMT combined with 25 μM of Eug groups; also recorded: IL-6 was upregulated in the 10 μM of 4-AcO-DMT, 25 μM of Eug, 10 μM of 4-AcO-DMT combined with 25 μM of Eug, and 20 μM of 4-AcO-DMT group | doses of 10, 20, 40, 80, and 160 μM significantly increased the cell viability | doses of 10, 20, 40, 80, and 160 μM significantly increased the cell viability | all doses significantly increased (p < 0.0001) the cell viability | 5 (p < 0.01), 10 (p < 0.0001), 20 (p < 0.01), 40, 80, and 100 μM (p < 0.0001) significantly increased the cell viability | – | – | – | – | – |
| COc1cc(/C=C/C(=O)CC(=O)/C=C/c2ccc(O)c(OC)c2)ccc1O [Cur, curcumin] | 0.5 µM | – | – | – | – | – | cytotoxic effects across all doses | cytotoxic effects across all doses | cytotoxic effects across all doses | 3.8 × | ≥1 µM | ≥5 µM | most substantial and severe decreases in cell viability were observed at 20, 40, and 80 μM | normalized COX-2 levels (COX-2/GAPDH) [1]: Psi (40 μM), Cur (0.5 μM), and Eug (50 μM) significantly reduced COX-2 levels without cytotoxic effects; also recorded: significantly reduced normalized COX-2 levels at concentrations of 0.5 (p < 0.0001), 2.5 (p < 0.01), 5, and 10 μM; Long-Term Cytotoxicity ([3]; listed as Curcumin): ≥ 1 µM; Short-Term Cytotoxicity ([3]; listed as Curcumin): ≥ 5 µM |
| C=CCc1ccc(O)c(OC)c1 [Eug, eugenol] | – | Psi (40 μM), Cur (0.5 μM), and Eug (50 μM) significantly reduced COX-2 levels without cytotoxic effects | −3.8× | significantly reduced in the 10 μM of 4-AcO-DMT, 25 μM of Eug, 20 μM of 4-AcO-DMT combined with 25 μM of Eug, 40 μM of 4-AcO-DMT, and 40 μM of 4-AcO-DMT combined with 25 μM of Eug groups | IL-6 was upregulated in the 10 μM of 4-AcO-DMT, 25 μM of Eug, 10 μM of 4-AcO-DMT combined with 25 μM of Eug, and 20 μM of 4-AcO-DMT group | 10 (p < 0.01), 100 (p < 0.05), 200 (p < 0.01), 400 (p < 0.001), and 800 (p < 0.0001) μM of eugenol decreased the cell viability | exposure to 50 (p < 0.001), 100 (p < 0.001), 200 (p < 0.0001), 400 (p < 0.0001), and 800 μM (p < 0.0001) for 48 h significantly reduced the cell viability | all doses reduced the cell viability | only 200 (p < 0.001), 400 (p < 0.0001), and 800 μM (p < 0.0001) of eugenol significantly reduced the cell viability | 3.8 × | ≥10 µM | ≥10 µM | demonstrated both short-term and long-term cytotoxic effects | Most Effective Dose ([1]; dose most effective in lowering COX-2 (and IL-6) in TNF-α/IFN-γ-treated HSEIC): 50 µM; normalized COX-2 levels (COX-2/GAPDH) ([1]; single ligands (Figure 6), vs TNF-α/IFN-γ group, doses given with the value, listed as eugenol): remarkable efficacy in reducing the normalized COX-2 levels at all tested concentrations; pathological scores [4]: reduced the pathological scores; LPS-induced IL-8 and TNF-α transcript levels [5]: significantly suppress the LPS-induced IL-8 and TNF-α transcript levels; Long-Term Cytotoxicity ([3]; listed as Eugenol): ≥ 10 µM; Short-Term Cytotoxicity ([3]; listed as Eugenol): ≥ 10 µM |
| COc1cc(CNC(=O)CCCC/C=C/C(C)C)ccc1O [Cap, capsaicin] | 0.5 µM | a reduction in COX-2 levels was observed only at a dose of 0.5 μM; also recorded: both 0.1 and 1 μM showed a trend towards decreased normalized COX-2/GAPDH levels | −1.6 × | effectively reduced COX-2 levels | – | 50 μM after 24 h (p < 0.05), 100 μM after 24 and 48 h (p < 0.05), and 200 μM after 24 h (p < 0.01) and 48 h (p < 0.0001) significantly decreased the cell viability | 50 μM after 24 h (p < 0.05), 100 μM after 24 and 48 h (p < 0.05), and 200 μM after 24 h (p < 0.01) and 48 h (p < 0.0001) significantly decreased the cell viability | – | – | – | ≥0.5 µM | ≥50 µM | did not demonstrate significant cytotoxicity in either the short- or long-term doses tested | – |
